Data: PMC5804415, “Comparison of ^68Ga-DOTA-Siglec-9 and ^18F-Fluorodeoxyribose-Siglec-9: Inflammation Imaging and Radiation Dosimetry” (Contrast Media & Molecular Imaging, 2017)
Positions of bridges follow the written chain, without caps; N, C: chain ends. Residues, ends and D or L forms follow the SMILES beside them. *: point of attachment. X1 = O=C(CON=C[C@H](O)[C@H](O)[C@H](O)CF)*; AEEA = NCCOCCOCC(=O)O

How the values were obtained:
[1] = tested on: rats with skin/muscle inflammation (turpentine oil); assay: Ex vivo gamma counting biodistribution in rats with skin/muscle inflammation; conditions: rats with skin/muscle inflammation, 60 min after injection, mean ± SD
Source text: Twenty-four hours before the PET studies, Sprague-Dawley rats (weight, 350 ± 22 g; n = 16) were subcutaneously injected with turpentine oil (Sigma-Aldrich) to induce focal acute, sterile inflammation [12]. Before the injection, rats were shaved on the both forelegs. Inflamed area on the left foreleg contained both skin and muscle. The intact, contralateral side (right foreleg) was used as a control.
After PET imaging, rats were sacrificed and various tissues were excised and weighed, and their radioactivity levels were measured with a gamma counter (1480 Wizard 3′′, PerkinElmer, Turku, Finland). The ex vivo biodistribution results were expressed as a percentage of the injected radioactivity dose per gram of tissue (% ID/g) and target-to-background ratio.

[2] = Human radiation dosimetry extrapolated from rat PET data (OLINDA/EXM); conditions: mean ± SD
Procedure: Absorbed doses of ^68Ga-DOTA-Siglec-9 and ^18F-FDR-Siglec-9 were calculated with the OLINDA/EXM version 1.0 software (organ level internal dose assessment and exponential modeling; Vanderbilt University, Nashville, TN, USA), which applies the MIRD schema (developed by the Medical Internal Radiation Dose committee of the Society of Nuclear Medicine) for radiation dose calculations in internal exposure. The software includes radionuclide information and selection of human body phantoms. The residence times derived from the rat data were integrated as the area under the time-activity curve. The residence times were converted into corresponding human values by multiplication with a factor to scale the organ and body weights: (WBody,rat/WOrgan,rat)×(WOrgan,human/WBody,human), where WBody,rat and WBody,human are the body weights of rat and human (a 70-kg male), respectively; and WOrgan,rat and WOrgan,human are the organ weights of rat and human (organ weights for a 70 kg male), respectively [14].

[3] = extrapolated from the rat PET data, OLINDA/EXM, 70 kg male
[4] = source organ, extrapolated from the rat PET data to 70 kg male

In the case of `CC(C)C[C@@H]1NC(=O)CNC(=O)[C@H](CCCNC(=N)N)NC(=O)[C@H](Cc2c[nH]c3ccccc23)NC(=O)[C@H](CO)NC(=O)[C@H](CC(C)C)NC(=O)[C@H](CO)NC(=O)[C@H](CC(C)C)NC(=O)[C@H](CCCNC(=N)N)NC(=O)[C@H](C)NC(=O)[C@@H](NC(=O)COCCOCCNC(=O)CON=C[C@H](O)[C@H](O)[C@H](O)CF)CSSC[C@@H](C(=O)N2CCC[C@H]2C(=O)N[C@@H](CO)C(=O)N[C@@H](CCCCN)C(=O)O)NC(=O)[C@H](CC(C)C)NC(=O)[C@H]([C@@H](C)O)NC1=O` [^18F-FDR-Siglec-9] ({X1-AEEA}-CARLSLSWRGLTLCPSK-OH; disulfide 1-14; N-terminus and C-terminus assumed), the “inflamed-to-control area ratio (ex vivo gamma counting)” value [1] is reported as 2.0 ± 0.70, the “inflammation-to-blood ratio (ex vivo gamma counting)” value [1] is reported as 1.3 ± 0.16 and the “Normalized number of disintegrations, Total body” value ([2]; extrapolated from the rat PET data to 70 kg male) is reported as 1.8 ± 0.32 h. For the same molecule, the “Human dose equivalent estimate, Adrenals” value [2, 3] was 0.020 ± 0.0029 mSv/MBq, the “Human dose equivalent estimate, Brain” value [2, 3] was 0.010 ± 0.0018 mSv/MBq and the “Human dose equivalent estimate, Breasts” value [2, 3] was 0.0086 ± 0.0011 mSv/MBq. The “Human dose equivalent estimate, Gallbladder wall” value [2, 3] was 0.017 ± 0.0014 mSv/MBq, the “Human dose equivalent estimate, Heart wall” value [2, 3] was 0.0085 ± 0.00045 mSv/MBq and the “Human dose equivalent estimate, Kidneys” value [2, 3] was 0.29 ± 0.13 mSv/MBq. The “Human dose equivalent estimate, Liver” value [2, 3] was 0.021 ± 0.0061 mSv/MBq, the “Human dose equivalent estimate, Lower large intestine wall” value [2, 3] was 0.014 ± 0.00091 mSv/MBq and the “Human dose equivalent estimate, Lungs” value [2, 3] was 0.0062 ± 0.00016 mSv/MBq. The “Human dose equivalent estimate, Muscle” value [2, 3] was 0.0074 ± 0.00025 mSv/MBq, the “Human dose equivalent estimate, Osteogenic cells” value [2, 3] was 0.016 ± 0.0019 mSv/MBq and the “Human dose equivalent estimate, Ovaries” value [2, 3] was 0.014 ± 0.00083 mSv/MBq. For the same molecule, the “Human dose equivalent estimate, Pancreas” value [2, 3] was 0.018 ± 0.0015 mSv/MBq, the “Human dose equivalent estimate, Red marrow” value [2, 3] was 0.012 ± 0.00032 mSv/MBq and the “Human dose equivalent estimate, Skin” value [2, 3] was 0.0080 ± 0.0008 mSv/MBq. The “Human dose equivalent estimate, Small intestine” value [2, 3] was 0.015 ± 0.00049 mSv/MBq, the “Human dose equivalent estimate, Spleen” value [2, 3] was 0.018 ± 0.0022 mSv/MBq and the “Human dose equivalent estimate, Stomach wall” value [2, 3] was 0.014 ± 0.00041 mSv/MBq. The “Human dose equivalent estimate, Testes” value [2, 3] was 0.010 ± 0.0010 mSv/MBq, the “Human dose equivalent estimate, Thymus” value [2, 3] was 0.010 ± 0.0013 mSv/MBq and the “Human dose equivalent estimate, Thyroid” value [2, 3] was 0.0094 ± 0.0014 mSv/MBq. For the same molecule, the “Human dose equivalent estimate, Total body” value [2, 3] was 0.012 ± 0.00012 mSv/MBq, the “Human dose equivalent estimate, Upper large intestine wall” value [2, 3] was 0.015 ± 0.00045 mSv/MBq and the “Human dose equivalent estimate, Urinary bladder wall” value [2, 3] was 0.081 ± 0.032 mSv/MBq. The “Human dose equivalent estimate, Uterus” value [2, 3] was 0.017 ± 0.0012 mSv/MBq, the “Human effective dose estimate” value ([2]; extrapolated from the rat PET data, OLINDA/EXM, 70 kg man) was 0.022 ± 0.0042 mSv/MBq and the “Normalized number of disintegrations, Heart wall” value [2, 4] was 0.0026 ± 0.0010 h. The “Normalized number of disintegrations, Kidneys” value [2, 4] was 0.47 ± 0.21 h, the “Normalized number of disintegrations, Liver” value [2, 4] was 0.11 ± 0.043 h and the “Normalized number of disintegrations, Lungs” value [2, 4] was 0.0029 ± 0.0011 h. For the same molecule, the “Normalized number of disintegrations, Muscle” value [2, 4] was 0.081 ± 0.042 h and the “Normalized number of disintegrations, Urinary bladder wall” value [2, 4] was 0.15 ± 0.070 h.
